Measured values published in patent US20220339134A1, “VERY-LONG-CHAIN POLYUNSATURATED FATTY ACIDS, ELOVANOID HYDROXYLATED DERIVATIVES, AND METHODS OF USE” (Board of Supervisors of Louisiana State University and …, priority 2019, published 2022).

Key:
primary human RPE cells = assay: Primary human RPE cells treated with 10 μM OAβ +/- ELVs (SA-β-Gal staining, qPCR); type: cell-based; settings: 3 days qPCR, 7 days staining
Description: (A) In vitro experimental design: Primary human RPE cells were treated with 10 μM OAβ+/−ELVs. After 3 days, RNA was isolated and qPCR analyzed. After 7 days, cells were subjected to β-Galactosidase staining. (B) Live cell images under bright field microscopy after 7 days. (C) β-Gal staining+/−ELVs. Quantitation of % for the β-Gal positive cells. ELVs decreased positive senescent cells. (D) Gene transcription of senescence, AMD-related and autophagy genes after OAβ (1-42) exposure+/−ELVs. (*P <0.05, student t-test).
OAβ toxicity is counteracted by ELVs in primary hRPE. (A) Primary hRPE cells were treated with 10 μM OAβ with or without adding ELVs. After 3 days, the total RNA was isolated and q-PCR analyzed. After 7 days, cells were subjected to β-Galactosidase staining. (B) Live cell images of primary hRPE under bright field microscope imaging after 7 days. (C) β-Galactosidase staining of primary hRPE, +/−ELVs. Quantitation of % for the β-Gal positive cells. ELVs decreased positive senescent cells. […]
Cells were visualized using SA-β-Gal staining kit (Cat 9860, Cell Signaling Technology, MA, USA). […] Pictures were taken under brightfield microscope (Nikon Eclipse TS100) 200× magnification after the development of blue color, and cells counted in 10 different random fields per well. […]

db/db mice hypothalamus = assay: IL6 (marker of SASP) induced by IL1β in diabetic mouse hypothalamus; type: cell-based
Description: Different effects have been observed in female and male mice.

## CC/C=C\C[C@H](O)\C=C/C=C/C=C/[C@H](O)C/C=C\C/C=C\CCCCCCCCCCCCCCC(=O)O [ELV-N-34]
Primary human RPE cells
  OAβ effects: RPE cell morphology, SASP (SA-β-Gal), senescence, AMD, MMP and autophagy gene expression: reverted these effects
db/db mice hypothalamus
  levels of IL6 (marker of SASP): reduced
